“And” between values parts separate entries of the source, which are not always exact repeats. Equal values may be shown once. Each block holds one compound with its values, some of them ahead of it.
Experiments:
[1] = system: B16 melanoma nodules; assay: In vivo biodistribution and tumor uptake of 99mTc complexes in C57B16 mice with B16 melanoma nodules; details: for mel/blood: melanoma/blood ratio; for mel/liver: melanoma/liver ratio; for mel/lung: melanoma/lung ratio; for mel/spleen: melanoma/spleen ratio
Description: The biodistribution data including melanoma/nontumor (M/NT) ratios for selected organs, summarized in Table 1 as percentage injected dose per gram (% ID/g)
To study the tumor uptake of radiolabeled metal complexes, in vivo, biodistribution experiments at 1 h after their administration were carried out in C57B16 male mice with palpable B16 melanoma nodules.

[2] = system: B16F10 melanoma tumors; assay: In vivo biodistribution of 99mTc complexes in C57B16 mice bearing B16F10 melanoma tumors; details: for mel/blood: melanoma/blood ratio; for mel/liver: melanoma/liver ratio; for mel/lung: melanoma/lung ratio; for mel/spleen: melanoma/spleen ratio
Description: To study the tumor uptake of ^99mTc complexes, ^99mTc-Z2-^99mTc-Z4, in vivo biodistribution experiment at 1, 3, 6 hours post intra-venous injection of the ^99mTc-complex were carried out in C57B16 mice bearing B16F10 melanoma tumors. The biodistribution data including melanoma/nontumor (M/NT) ratios for selected organs are summarized in Table 2 as percentage injected dose per gram (% ID/g) (Table 2). […] This is due to washout from no-tumor organs and increased retention in the tumor.

Eyes ([1]; 1 h postinjection): 15.42 ± 2.07 % ID/g
blood ([1]; 1 h postinjection): 1.05 ± 0.19 % ID/g
brain ([1]; 1 h postinjection): 0.24 ± 0.04 % ID/g
heart ([1]; 1 h postinjection): 1.34 ± 0.18 % ID/g
kidney ([1]; 1 h postinjection): 5.33 ± 1.10 % ID/g
liver ([1]; 1 h postinjection): 12.62 ± 1.80 % ID/g
lung ([1]; 1 h postinjection): 6.75 ± 0.57 % ID/g
melanoma (tumor uptake) ([1]; 1 h postinjection): 9.61 % ID/g and 9.61 ± 1.02 % ID/g
muscle ([1]; 1 h postinjection): 0.94 ± 0.14 % ID/g
spleen ([1]; 1 h postinjection): 3.00 ± 1.45 % ID/g
melanoma (tumor uptake) ([1]; 1 h postinjection, listed as Iso-[^99mTcOAADT]-(CH2)2-NEt2)): 9.61 % ID/g
mel/blood ([1]; 1 h postinjection): 14.71 and 14.71 ± 2.40
mel/liver ([1]; 1 h postinjection): 0.75 and 0.75 ± 0.11
mel/lung ([1]; 1 h postinjection): 1.43 and 1.43 ± 0.15
mel/spleen ([1]; 1 h postinjection): 3.65 and 3.65 ± 1.19
in vivo tumor uptake ([1]; 3 h after administration): 8.19 %ID/g
in vivo tumor uptake ([1]; 6 h after administration): 7.37 %ID/g
Eyes ([1]; 6 h postinjection): 11.09 ± 0.84 % ID/g
blood ([1]; 6 h postinjection): 0.25 ± 0.02 % ID/g
brain ([1]; 6 h postinjection): 0.05 ± 0.01 % ID/g
heart ([1]; 6 h postinjection): 0.18 ± 0.02 % ID/g
kidney ([1]; 6 h postinjection): 1.11 ± 0.13 % ID/g
liver ([1]; 6 h postinjection): 3.69 ± 0.48 % ID/g
lung ([1]; 6 h postinjection): 1.39 ± 0.41 % ID/g
melanoma (tumor uptake) ([1]; 6 h postinjection): 7.05 % ID/g and 7.05 ± 1.23 % ID/g
muscle ([1]; 6 h postinjection): 0.07 ± 0.01 % ID/g
spleen ([1]; 6 h postinjection): 0.78 ± 0.85 % ID/g
mel/blood ([1]; 6 h postinjection): 47.25 and 47.25 ± 7.32
mel/liver ([1]; 6 h postinjection): 2.00 and 2.00 ± 0.23
mel/lung ([1]; 6 h postinjection): 5.87 and 5.87 ± 1.79
mel/spleen ([1]; 6 h postinjection): 13.99 and 13.99 ± 5.17
SMILES: CCN(CC)CC[N+]12CC[S][99Tc-]13(=[O])[S]CC(=O)[N]3CC2 (centres unmarked) [^99mTc-27, Iso-[^99mTcOAADT]-(CH2)2-NEt2)]

Eyes ([2]; 1 h postinjection): 6.72 ± 0.77 % ID/g
blood ([2]; 1 h postinjection): 0.33 ± 0.03 % ID/g
brain ([2]; 1 h postinjection): 0.16 ± 0.01 % ID/g
heart ([2]; 1 h postinjection): 0.59 ± 0.07 % ID/g
kidney ([2]; 1 h postinjection): 2.50 ± 0.32 % ID/g
liver ([2]; 1 h postinjection): 20.32 ± 1.0 % ID/g
lung ([2]; 1 h postinjection): 2.37 ± 0.17 % ID/g
melanoma (tumor uptake) ([2]; 1 h postinjection): 3.43 ± 0.70 % ID/g
muscle ([2]; 1 h postinjection): 0.63 ± 0.17 % ID/g
spleen ([2]; 1 h postinjection): 1.37 ± 0.19 % ID/g
mel/blood ([2]; 1 h postinjection): 10.50 ± 1.9
mel/liver ([2]; 1 h postinjection): 0.17 ± 0.03
mel/lung ([2]; 1 h postinjection): 1.45 ± 0.30
mel/spleen ([2]; 1 h postinjection): 2.49 ± 0.24
Eyes ([2]; 3 h postinjection): 7.19 ± 1.40 % ID/g
blood ([2]; 3 h postinjection): 0.34 ± 0.09 % ID/g
brain ([2]; 3 h postinjection): 0.18 ± 0.04 % ID/g
heart ([2]; 3 h postinjection): 0.63 ± 0.07 % ID/g
kidney ([2]; 3 h postinjection): 2.73 ± 0.76 % ID/g
liver ([2]; 3 h postinjection): 16.67 ± 3.8 % ID/g
lung ([2]; 3 h postinjection): 2.36 ± 0.54 % ID/g
melanoma (tumor uptake) ([2]; 3 h postinjection): 3.59 ± 1.76 % ID/g
muscle ([2]; 3 h postinjection): 0.70 ± 0.52 % ID/g
spleen ([2]; 3 h postinjection): 1.22 ± 0.42 % ID/g
mel/blood ([2]; 3 h postinjection): 9.22 ± 4.93
mel/liver ([2]; 3 h postinjection): 0.15 ± 0.09
mel/lung ([2]; 3 h postinjection): 1.30 ± 0.67
mel/spleen ([2]; 3 h postinjection): 2.57 ± 1.21
Eyes ([2]; 6 h postinjection): 7.01 ± 0.41 % ID/g
blood ([2]; 6 h postinjection): 0.14 ± 0.03 % ID/g
brain ([2]; 6 h postinjection): 0.02 ± 0.01 % ID/g
heart ([2]; 6 h postinjection): 0.25 ± 0.06 % ID/g
kidney ([2]; 6 h postinjection): 1.07 ± 0.17 % ID/g
liver ([2]; 6 h postinjection): 12.9 ± 1.72 % ID/g
lung ([2]; 6 h postinjection): 0.91 ± 0.24 % ID/g
melanoma (tumor uptake) ([2]; 6 h postinjection): 3.52 ± 0.88 % ID/g
muscle ([2]; 6 h postinjection): 0.09 ± 0.02 % ID/g
spleen ([2]; 6 h postinjection): 0.58 ± 0.20 % ID/g
mel/blood ([2]; 6 h postinjection): 24.95 ± 4.6
mel/liver ([2]; 6 h postinjection): 0.28 ± 0.08
mel/lung ([2]; 6 h postinjection): 3.99 ± 1.10
mel/spleen ([2]; 6 h postinjection): 6.44 ± 2.12
SMILES: O=C1C[S][99Tc-]23(=[O])[S]CC[N+]2(CCCN2CCCCC2)CC[N]13 (centres unmarked) [Tc-Z4]

Eyes ([2]; 1 h postinjection): 4.85 ± 0.63 % ID/g
blood ([2]; 1 h postinjection): 0.35 ± 0.11 % ID/g
brain ([2]; 1 h postinjection): 0.08 ± 0.02 % ID/g
heart ([2]; 1 h postinjection): 0.49 ± 0.11 % ID/g
kidney ([2]; 1 h postinjection): 2.62 ± 1.50 % ID/g
liver ([2]; 1 h postinjection): 17.75 ± 2.56 % ID/g
lung ([2]; 1 h postinjection): 2.08 ± 0.60 % ID/g
melanoma (tumor uptake) ([2]; 1 h postinjection): 2.36 ± 0.25 % ID/g
muscle ([2]; 1 h postinjection): 0.38 ± 0.11 % ID/g
spleen ([2]; 1 h postinjection): 3.19 ± 1.05 % ID/g
mel/blood ([2]; 1 h postinjection): 7.49 ± 2.79
mel/liver ([2]; 1 h postinjection): 0.14 ± 0.03
mel/lung ([2]; 1 h postinjection): 1.26 ± 0.57
mel/spleen ([2]; 1 h postinjection): 0.85 ± 0.44
Eyes ([2]; 3 h postinjection): 4.72 ± 0.62 % ID/g
blood ([2]; 3 h postinjection): 0.10 ± 0.02 % ID/g
brain ([2]; 3 h postinjection): 0.01 ± 0.00 % ID/g
heart ([2]; 3 h postinjection): 0.14 ± 0.02 % ID/g
kidney ([2]; 3 h postinjection): 1.02 ± 0.13 % ID/g
liver ([2]; 3 h postinjection): 12.58 ± 1.4 % ID/g
lung ([2]; 3 h postinjection): 0.87 ± 0.35 % ID/g
melanoma (tumor uptake) ([2]; 3 h postinjection): 2.74 ± 0.24 % ID/g
muscle ([2]; 3 h postinjection): 0.09 ± 0.02 % ID/g
spleen ([2]; 3 h postinjection): 3.16 ± 0.46 % ID/g
mel/blood ([2]; 3 h postinjection): 26.65 ± 4.9
mel/liver ([2]; 3 h postinjection): 0.22 ± 0.03
mel/lung ([2]; 3 h postinjection): 3.24 ± 1.79
mel/spleen ([2]; 3 h postinjection): 0.87 ± 0.17
SMILES: O=C1C[S][99Tc-]23(=[O])[S]CC[N+]2(CCCN2CCOCC2)CC[N]13 (centres unmarked) [Tc-Z3]

— US8747810B2, “Compositions and methods for imaging tissues, organs and tumors” (President and Fellows of Harvard College, priority 2009, dated 2014)
